# In US20230133587A1, “Amino Acid Mediated Gene Delivery and Its Uses” (CHINESE INSTITUTE FOR BRAIN RESEARCH, BEIJING, priority 2020, published 2023):
# System: astrocytes
# Assay: Other amino acids promote uptake of plasmid vectors by astrocytes
# Type: in vivo
# Conditions: amino acid solution as vehicle
# Description: Other amino acids, including serine, alanine, histidine, γ-aminobutyric acid, proline, lysine, and threonine, are tested. […] From the analysis of the transfection efficiency of various amino acids, it was seen that, except for alanine, the efficiency of L-type amino acids is much higher than that of D-type amino acids (please see FIG. 11).
# Histidine, lysine, and arginine, which are also positively charged, are significant differences in delivery efficiency, and gene delivery efficiency of threonine, serine lysine, etc. also has vast differences.
row,Compound,uptake of plasmid vectors by astrocytes
1,O=C(O)[C@@H]1CCCN1 [proline],can efficiently promote astrocytes to take up plasmid vectors
2,C[C@@H](N)C(=O)O [D-Alanine],promote astrocyte uptake of plasmid vector(s)
3,C[C@@H](O)[C@H](N)C(=O)O [threonine],can efficiently promote astrocytes to take up plasmid vectors
4,NCCCC[C@H](N)C(=O)O [lysine],can efficiently promote astrocytes to take up plasmid vectors
5,N[C@@H](CO)C(=O)O [L-Serine],promote astrocyte uptake of plasmid vector(s)
6,N[C@@H](Cc1c[nH]cn1)C(=O)O [L-Histidine],promote astrocyte uptake of plasmid vector(s)
7,C[C@@H](O)[C@H](N)C(=O)O [L-Threonine],promote astrocyte uptake of plasmid vector(s)
8,NCCCC(=O)O [γ-aminobutyric acid],can efficiently promote astrocytes to take up plasmid vectors
9,N[C@@H](CO)C(=O)O [serine],can efficiently promote astrocytes to take up plasmid vectors
10,N[C@@H](Cc1c[nH]cn1)C(=O)O [histidine],can efficiently promote astrocytes to take up plasmid vectors
11,C[C@H](N)C(=O)O [alanine],can efficiently promote astrocytes to take up plasmid vectors
